Structures can show the parent of a compound that is named as a salt.
Tests used:
human MC1 receptor = human MC1 receptor (Homo sapiens (Human), UniProt Q01726); assay: Human MC receptor activation, cAMP production in cells expressing human MC1 receptor; type: cell-based; details: FreeStyle 293-F cells transiently expressing human MC1 receptor, α-MSH maximum = 100%
From the text: (1) Construction of Human MC Receptor-Expressing Vector
A human MC4 receptor gene (GenBank Accession No.: NM_005912.2), a human MC1 receptor gene (GenBank Accession No.: NM_002386.3), or a human MC3 receptor gene (GenBank Accession No.: NM_019888.3) was introduced into an expression vector pcDNA™ 3.1/V5-His TOPO (registered trademark) (Thermo Fisher Scientific Inc.).
(2) Construction of Cells Transiently Expressing Human MC Receptor
(§1) An expression vector for a human MC4, MC1, or MC3 receptor was introduced into FreeStyle™ 293-F cell (Thermo Fisher Scientific Inc., product number: R790-07). For the introduction, electroporation was employed. That is, 1×10^7 FreeStyle™ 293-F cell were suspended in 80 μL of an electroporation buffer (Thermo Fisher Scientific Inc., product number: B201-100), and 20 μg of the expression vector was added thereto. The resultant was put into a cuvette (OC-100 Processing Assembly, MaxCyte, Inc.) and electroporated with MaxCyte SIX (registered trademark) (MaxCyte, Inc.). The cells were cultured over one day, suspended in a Cell Banker (registered trademark) 1 (JUJI FIELD Inc.), product number: BLC-1), and stored frozen until their use.
(§2) (3) Measurement of Amount of cAMP Produced
Measurement was carried out by using a LANCE (registered trademark) Ultra cAMP Kit (PerkinElmer, Inc.) in accordance with the attached instructions. That is, after dissolution in DMSO, the test compound (a final concentration of 1 pM to 30 μM) diluted with an assay buffer (Hank's balanced salt solution, 5 mM 4-(2-hydroxyethyl)-1-piperazineethanesulfonic acid (HEPES), 0.5 mM 3-isobutyl-1-methylxanthine (IBMX), 0.1% bovine serum albumin, pH 7.4), or α-MSH (Bachem Inc., a final concentration of 1 pM to 30 μM) was added to OptiPlate-384 (PerkinElmer, Inc.). Furthermore, a suspension of cells transiently expressing the human MC4, MC1, or MC3 receptor prepared by using the assay buffer was added thereto at 1,000 cells/well, followed by being left to stand at room temperature for about 1 hour. Thereafter, an Eu-cAMP tracer solution and an ULight™-anti-cAMP solution were added thereto, followed by being left to stand at room temperature for about 1 hour. The amount of cAMP was calculated using EnVision (registered trademark) (PerkinElmer Inc.).
(§3) For the agonistic activity, an efficacy (EC50 (μM)) was calculated by a non-linear regression method with a Sigmoid-Emax model, by defining the maximum reaction with α-MSH as 100% and the reaction with the vehicle alone as 0%, respectively.

rat MC4 receptor = rat MC4 receptor (Rattus norvegicus (Rat), UniProt P70596); assay: Rat MC4 receptor activation, cAMP production in cells expressing rat MC4 receptor; type: cell-based; details: FreeStyle 293-F cells transiently expressing rat MC4 receptor, α-MSH maximum = 100%
Sequence of rat MC4 receptor (P70596 whole entry): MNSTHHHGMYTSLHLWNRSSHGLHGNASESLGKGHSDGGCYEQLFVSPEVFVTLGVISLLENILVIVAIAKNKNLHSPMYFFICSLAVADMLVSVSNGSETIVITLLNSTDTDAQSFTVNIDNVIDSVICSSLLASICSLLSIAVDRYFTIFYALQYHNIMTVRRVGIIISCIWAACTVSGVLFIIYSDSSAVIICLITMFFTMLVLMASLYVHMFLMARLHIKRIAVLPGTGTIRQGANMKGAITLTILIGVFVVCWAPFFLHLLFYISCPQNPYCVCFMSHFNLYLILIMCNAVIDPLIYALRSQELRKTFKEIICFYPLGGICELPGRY
From the text: (1) Construction of Rat MC4 Receptor-Expressing Vector
A rat MC4 receptor gene (GenBank Accession No.: NM_013099.2) was introduced into an expression vector pcDNA™ 3.1/V5-His TOPO (registered trademark) (Thermo Fisher Scientific Inc.).
(2) Construction of Cells Transiently Expressing Rat MC4 Receptor
as §1, with “rat MC4” for “human MC4, MC1, or MC3”, “Inc.).” for “Inc., product number: R790-07).”, “Inc.),” for “Inc., product number: B201-100),”, “STX” for “SIX”, “Inc.),” for “Inc.), product number: BLC-1),”, “until” for “until their”
as §2
Measurement was carried out in accordance with the attached instructions, using a LANCE (registered trademark) Ultra cAMP Kit (PerkinElmer, Inc.). That is, after dissolution in DMSO, the test compound (a final concentration of 1 pM to 30 μM) diluted with an assay buffer (Hank's balanced salt solution, 5 mM HEPES, 0.5 mM IBMX, 0.1% bovine serum albumin, pH 7.4), or α-MSH (Bachem Inc., a final concentration of 1 pM to 30 μM) was added to OptiPlate-384 (PerkinElmer, Inc.). Furthermore, a suspension of cells transiently expressing the rat MC4 receptor, that had been prepared using the assay buffer, was added thereto at 1,000 cells/well, followed by being left to stand at room temperature for about 1 hour. Thereafter, an Eu-cAMP tracer solution and an ULight™-anti-cAMP solution were added thereto, followed by being left to stand at room temperature for about 1 hour. The amount of cAMP was calculated using EnVision (registered trademark) (PerkinElmer Inc.).
as §3

Male SD rats = assay: Rat erection-inducing action; type: in vivo; details: 10 mg/kg intravenously, erections up to one hour after administration, vs vehicle, P<0.05
Description: Male SD rats (Charles River Laboratories Japan, Inc.) were used. A test compound (10 mg/kg) or the vehicle (20% dimethyl acetamide, 10% Cremophor (registered trademark), 70% physiological saline) was administered intravenously through the tail vein. After administration, the rats were transferred to transparent observation cages made of plastic to measure the erection times of up to one hour after administration. The measurements were carried out for five groups (3 to 7 animals per group): vehicle groups, Example compound groups (Ex 87, 88, and 89), and THIQ group, which had been known as an MC4 receptor agonist (J. Med. Chem., 45, 4589-4593 (2002)), as a positive control. For a statistical significance test, Dunnett's multiple comparison test was used for the comparison with vehicle control group, and it was determined whether there was an erection-inducing effect with a statistically significant difference (P<0.05).

Sequence of human MC1 receptor (Q01726 whole entry): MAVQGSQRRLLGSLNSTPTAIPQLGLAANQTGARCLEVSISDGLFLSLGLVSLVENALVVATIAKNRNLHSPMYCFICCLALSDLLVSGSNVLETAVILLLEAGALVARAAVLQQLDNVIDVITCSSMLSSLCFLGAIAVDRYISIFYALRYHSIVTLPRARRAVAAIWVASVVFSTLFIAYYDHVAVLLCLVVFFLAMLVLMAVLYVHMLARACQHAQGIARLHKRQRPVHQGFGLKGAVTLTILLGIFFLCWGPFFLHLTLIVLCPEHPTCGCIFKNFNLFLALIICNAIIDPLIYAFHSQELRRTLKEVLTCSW

Compound | EC50 (human MC1 receptor) [µM] | EC50 (rat MC4 receptor) [µM] | erection-inducing effect (Male SD rats)
Cc1cc(C)c(C[C@@H](C(=O)O)N2CCN(C(=O)[C@@H]3CN(C(C)(C)C)C[C@H]3c3ccc(Cl)cc3F)[C@@H](C)C2)c(C)c1 [Example 89] | 1.3 | 0.0031 | did not exhibit an erection-inducing effect
Cc1ccc(C[C@@H](C(=O)O)N2CCN(C(=O)[C@@H]3CN(C4CCOCC4)C[C@H]3c3ccc(Cl)cc3F)[C@@H](C)C2)c(F)c1 [Example 87, (2S)-2-[(3S)-4-{[(3S,4R)-4-(4-chloro-2-fluorophenyl)-1-(tetrahydro-2H-pyran-4-yl)pyrrolidin-3-yl]carbonyl}-3-methylpiperazin-1-yl]-3-(2-fluoro-4-methylphenyl)propanoic acid dihydrochloride] | 1.1 | 0.021 | did not exhibit an erection-inducing effect
Cc1ccc(C[C@@H](C(=O)O)N2CCN(C(=O)[C@@H]3CN(C(C)(C)C)C[C@H]3c3ccc(Cl)cc3F)[C@@H](C)C2)cc1 [Example 11] | 0.86 | 0.021 | –
CCC[C@H]1CN([C@@H](Cc2ccc3ccccc3c2)C(=O)O)CCN1C(=O)[C@@H]1CN(C(C)(C)C)C[C@H]1c1ccc(F)cc1F [Example 9] | 0.39 | 0.0026 | –
Cc1ccc(C[C@@H](C(=O)O)N2CCN(C(=O)[C@@H]3CN(C(C)(C)C)C[C@H]3c3ccc(Cl)cc3F)[C@@H](C)C2)c(F)c1 [Example 4, (2S)-2-[(3S)-4-{[(3S,4R)-1-tert-butyl-4-(4-chloro-2-fluorophenyl)pyrrolidin-3-yl]carbonyl}-3-methylpiperazin-1-yl]-3-(2-fluoro-4-methylphenyl)propanoic acid dihydrochloride] | 0.07 | 0.0013 | –
C[C@H]1CN([C@@H](Cc2ccc3c(c2)CCC3)C(=O)O)CCN1C(=O)[C@@H]1CN(C(C)(C)C)C[C@H]1c1ccc(F)cc1F [Example 5, (2S)-2-[(3S)-4-{[(3S,4R)-1-tert-butyl-4-(2,4-difluorophenyl)pyrrolidin-3-yl]carbonyl}-3-methylpiperazin-1-yl]-3-(2,3-dihydro-1H-inden-5-yl)propanoic acid dihydrochloride] | 1.3 | 0.026 | –
Cc1cc(C)c(C[C@@H](C(=O)O)N2CCN(C(=O)[C@@H]3CN(C4CCOCC4)C[C@H]3c3ccc(Cl)cc3F)[C@@H](C)C2)c(F)c1 [Example 88] | 2.7 | 0.011 | did not exhibit an erection-inducing effect
Cc1cc(F)c(C[C@@H](C(=O)O)N2CCN(C(=O)[C@@H]3CN(C(C)(C)C)C[C@H]3c3ccc(Cl)cc3F)[C@@H](C)C2)c(F)c1 [Example 76] | 0.1 | 0.0017 | –

— US10301286B2, “Piperazine derivative” (Astellas Pharma Inc., priority 2015, dated 2019)
